Where a name gives a salt, the structure may show the parent alone. Read-outs that look alike come from different tables or passages of the source.
Target: IRAK4 (Homo sapiens (Human), UniProt Q9NWZ3)
Test: IRAK4 kinase activity, IMAP fluorescence polarization assay
Assay type: biochemical
Conditions: 100 μM ATP
How it was run: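 Fluorescence polarization (IMAP nanoparticle binding of phosphopeptide) reports activity after a 30 min, 25 °C reaction. Conditions: 100 μM ATP, 0.5 nM GST-IRAK4, 100 nM fluorescent peptide, 10 mM Tris pH 7.2, 1 mM MgCl2, 1 mM DTT, 0.01% Tween 20.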

[1] = 0.5 nM GST tagged IRAK4, read-out: IRAK4 IC50

Sequence of IRAK4 (Q9NWZ3 whole entry): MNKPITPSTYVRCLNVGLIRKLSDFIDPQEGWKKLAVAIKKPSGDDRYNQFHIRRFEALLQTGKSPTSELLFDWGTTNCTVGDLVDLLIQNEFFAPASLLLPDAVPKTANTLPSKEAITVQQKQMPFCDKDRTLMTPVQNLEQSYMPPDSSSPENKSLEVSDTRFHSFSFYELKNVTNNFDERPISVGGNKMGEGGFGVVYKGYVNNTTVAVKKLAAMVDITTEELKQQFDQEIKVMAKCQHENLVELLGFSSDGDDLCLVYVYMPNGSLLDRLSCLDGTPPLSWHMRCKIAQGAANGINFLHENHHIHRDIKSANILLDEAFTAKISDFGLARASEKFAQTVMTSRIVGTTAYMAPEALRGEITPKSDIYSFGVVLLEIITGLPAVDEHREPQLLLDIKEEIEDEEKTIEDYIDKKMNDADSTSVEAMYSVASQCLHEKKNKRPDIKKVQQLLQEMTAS

Row | IC50 (read-out: IRAK4 IC50) [nM] | IC50 [1] [nM] | SMILES | also measured
1 | 15 | – | O=c1[nH]c(N2CC[C@H](CO)C2)nc(N[C@@H]2CCCNC2)c1-c1ccc2ccccc2n1 [Example 180, 2-((S)-3-(hydroxymethyl)pyrrolidin-1-yl)-6-((R)-piperidin-3-ylamino)-5-(quinolin-2-yl)pyrimidin-4(3H)-one] | –
2 | – | 16 | NCCNc1cccc2sc(-c3c(N[C@@H]4CCCNC4)nc(N4CCOCC4)[nH]c3=O)nc12 [Example 356, 5-[4-[(2-aminoethyl)amino]-1,3-benzothiazol-2-yl]-2-(morpholin-4-yl)-6-[[(3R)-piperidin-3-yl]amino]-3,4-dihydropyrimidin-4-one] | –
3 | 26 | – | COC1CCN(c2nc(N[C@@H]3CCCNC3)c(-c3ccc4ccccc4n3)c(=O)[nH]2)C1 (stereo partly drawn) [Example 186, 2-(3-methoxypyrrolidin-1-yl)-6-((R)-piperidin-3-ylamino)-5-(quinolin-2-yl)pyrimidin-4(3H)-one] | –
4 | 20 | – | O=c1[nH]c(N2CCC(O)C2)nc(N[C@@H]2CCCNC2)c1-c1ccc2ccccc2n1 (stereo partly drawn) [Example 167, 2-(3-hydroxypyrrolidin-1-yl)-6-((R)-piperidin-3-ylamino)-5-(quinolin-2-yl)pyrimidin-4(3H)-one] | –
5 | – | 1300 | CC(C)(C)c1ccc2sc(-c3c(N[C@@H]4CCCNC4)nc(N4CCOCC4)[nH]c3=O)nc2c1 [Example 342, (R)-5-(5-tert-butylbenzo[d]thiazol-2-yl)-2-morpholino-6-(piperidin-3-ylamino)pyrimidin-4(3H)-one] | –
6 | – | 5400 | N[C@@H]1CCCC[C@H]1Nc1cccc2sc(-c3c(N[C@@H]4CCCNC4)nc(N4CCOCC4)[nH]c3=O)nc12 (racemic) [Example 352, 5-(4-[[(trans, rac)-2-aminocyclohexyl]amino]-1,3-benzothiazol-2-yl)-2-(morpholin-4-yl)-6-[[(3R)-piperidin-3-yl]amino]-3,4-dihydropyrimidin-4-one] | –
7 | – | 12 | O=c1[nH]c(N2CCOCC2)nc(N[C@@H]2CCCNC2)c1-c1csc(-n2cccc2)n1 [Example 214, (R)-5-(2-(1H-pyrrol-1-yl)thiazol-4-yl)-2-morpholino-6-(piperidin-3-ylamino)pyrimidin-4(3H)-one] | –
8 | 34 | – | O=c1[nH]c(N2CC3CC3C2)nc(N[C@@H]2CCCNC2)c1-c1ccc2ccccc2n1 (stereo partly drawn) [Example 168, 2-(3-azabicyclo[3.1.0]hexan-3-yl)-6-((R)-piperidin-3-ylamino)-5-(quinolin-2-yl)pyrimidin-4(3H)-one] | –
9 | 90 | – | O=c1[nH]c(N2CCOCC2)nc(N[C@@H]2CCCNC2)c1-c1nc(-c2cc(F)ccc2F)cs1 [Example 205] | –

Continued, molecule first:

Row | SMILES | IC50 (read-out: IRAK4 IC50) [nM] | IC50 [1] [nM] | also measured
10 | N=C(N)CNc1nc(N2CCOCC2)[nH]c(=O)c1-c1nc2ccccc2s1 [Example 250, 2-[[5-(1,3-benzothiazol-2-yl)-2-(morpholin-4-yl)-6-oxo-1,6-dihydropyrimidin-4-yl]amino]ethanimidamide] | – | – | IC50 (read-out: IC50): 300 nM
11 | O=c1[nH]c(N2CCN(c3ccccc3F)CC2)nc(N[C@@H]2CCCNC2)c1-c1nc2ccccc2s1 [Example 146, (R)-5-(benzo[d]thiazol-2-yl)-2-(4-(2-fluorophenyl)piperazin-1-yl)-6-(piperidin-3-ylamino)pyrimidin-4(3H)-one] | 16 | – | –
12 | O=c1[nH]c(NC2CCC2)nc(N[C@@H]2C[C@H](CO)[C@@H](O)[C@H]2O)c1-c1ccc2ccccc2n1 [Example 20, 2-(Cyclobutylamino)-6-((1R,2S,3R,4R)-2,3-dihydroxy-4-(hydroxymethyl)cyclopentylamino)-5-(quinolin-2-yl)pyrimidin-4(3H)-one.HCl] | – | 19 | –
13 | O=c1[nH]c(NC2CCC2)nc(N[C@@H]2C[C@H](CO)[C@@H](O)[C@H]2O)c1-c1cscn1 [Example 23, 2-(Cyclobutylamino)-6-((1R,2S,3R,4R)-2,3-dihydroxy-4-(hydroxymethyl)cyclopentylamino)-5-(thiazol-4-yl)pyrimidin-4(3H)-one.HCl] | – | 1790 | –
14 | O=c1[nH]c(N2CCOCC2)nc(N[C@@H]2C[C@H](CO)[C@@H](O)[C@H]2O)c1-c1ccc2ccccc2n1 [Example 18, 6-((1R,2S,3R,4R)-2,3-Dihydroxy-4-(hydroxymethyl)cyclopentylamino)-2-morpholino-5-(quinolin-2-yl)pyrimidin-4(3H)-one.HCl] | – | 9.5 | –
15 | O=c1[nH]c(N2CCCCC2)nc(N[C@@H]2CCCNC2)c1-c1nc2c(C3CC3)nccc2s1 [Example 117, (R)-5-(4-cyclopropylthiazolo[4,5-c]pyridin-2-yl)-2-(piperidin-1-yl)-6-(piperidin-3-ylamino)pyrimidin-4(3H)-one.HCl] | – | 8.6 | –
16 | Cn1cc(C2CCN(c3nc(N[C@@H]4C[C@H](CO)[C@@H](O)[C@H]4O)c(-c4nc5ccccc5s4)c(=O)[nH]3)CC2)nn1 [Example 73, 5-(benzo[d]thiazol-2-yl)-6-((1R,2S,3R,4R)-2,3-dihydroxy-4-(hydroxymethyl)cyclopentylamino)-2-(4-(1-methyl-1H-1,2,3-triazol-4-yl)piperidin-1-yl)pyrimidin-4(3H)-one] | – | – | IC50 (unit inferred, read-out: IRAK4 IC50): 19.4 nM
17 | CS(=O)(=O)N1CCN(c2nc(N[C@@H]3C[C@H](CO)[C@@H](O)[C@H]3O)c(-c3nc4ccccc4s3)c(=O)[nH]2)CC1 [Example 12, 5-(Benzo[d]thiazol-2-yl)-6-((1R,2S,3R,4R)-2,3-dihydroxy-4-(hydroxymethyl)cyclopentylamino)-2-(4-(methylsulfonyl)piperazin-1-yl)pyrimidin-4(3H)-one.HCl] | – | 25 | –
18 | O=c1[nH]c(NC2COC2)nc(N[C@@H]2C[C@H](CO)[C@@H](O)[C@H]2O)c1-c1nc2ccccc2s1 [Example 11, 5-(Benzo[d]thiazol-2-yl)-6-((1R,2S,3R,4R)-2,3-dihydroxy-4-(hydroxymethyl)cyclopentylamino)-2-(oxetan-3-ylamino)pyrimidin-4(3H)-one.HCl] | – | 892 | –
19 | COc1cccc(N2CCN(c3nc(N[C@@H]4CCCNC4)c(-c4nc5ccccc5s4)c(=O)[nH]3)CC2)n1 [Example 143, (R)-5-(benzo[d]thiazol-2-yl)-2-(4-(6-methoxypyridin-2-yl)piperazin-1-yl)-6-(piperidin-3-ylamino)pyrimidin-4(3H)-one] | 10 | – | –
20 | O=c1[nH]c(N2CCOCC2)nc(NCC2CCCCN2)c1-c1nc2ccccc2s1 (centres unmarked) [Example 254, 5-(1,3-benzothiazol-2-yl)-2-(morpholin-4-yl)-6-[(piperidin-2-ylmethyl)amino]-3,4-dihydro-pyrimidin-4-one] | – | – | IC50 (read-out: IC50): 1600 nM
21 | O=c1[nH]c(N2CCOCC2)nc(N[C@H]2CNCC(F)(F)C2)c1-c1nc2ccccc2s1 [Example 212, (R)-5-(benzo[d]thiazol-2-yl)-6-((5,5-difluoropiperidin-3-yl)amino)-2-morpholinopyrimidin-4(3H)-one] | – | – | IC50 (read-out: IC50): 792 nM
22 | O=c1[nH]c(N2CCC(F)(F)CC2)nc(N[C@@H]2CCCNC2)c1-c1nc2ccccc2s1 [Example 312] | – | – | IC50 (read-out: IC50): 78 nM
23 | O=c1[nH]c(N2CCN(c3nnc(C4CC4)o3)CC2)nc(N[C@@H]2CCCNC2)c1-c1nc2ccccc2s1 [Example 162, (R)-5-(benzo[d]thiazol-2-yl)-2-(4-(5-cyclopropyl-1,3,4-oxadiazol-2-yl)piperazin-1-yl)-6-(piperidin-3-ylamino)pyrimidin-4(3H)-one] | 27 | – | –
24 | O=c1[nH]c(NC2CCC2)nc(N[C@@H]2C[C@H](CO)[C@@H](O)[C@H]2O)c1-c1nccs1 [Example 22, 2-(Cyclobutylamino)-6-((1R,2S,3R,4R)-2,3-dihydroxy-4-(hydroxymethyl)cyclopentylamino)-5-(thiazol-2-yl)pyrimidin-4(3H)-one.HCl] | – | 1110 | –
25 | O=c1[nH]c(NC2CCCC2)nc(N[C@@H]2C[C@H](CO)[C@@H](O)[C@H]2O)c1-c1nc2ccccc2s1 [Example 4, 5-(Benzo[d]thiazol-2-yl)-2-(cyclopentylamino)-6-((1R,2S,3R,4R)-2,3-dihydroxy-4-(hydroxymethyl)cyclopentylamino)pyrimidin-4(3H)-one.HCl] | – | 92 | –
26 | O=c1[nH]c(N2CCOCC2)nc(NCCN2CCCCC2)c1-c1nc2ccccc2s1 [Example 257, 5-(1,3-benzothiazol-2-yl)-2-(morpholin-4-yl)-6-[[2-(piperidin-1-yl)ethyl]amino]-3,4-dihydropyrimidin-4-one] | – | – | IC50 (read-out: IC50): 2 nM
27 | Cn1cc(N2CCN(c3nc(N[C@@H]4CCCNC4)c(-c4nc5ccccc5s4)c(=O)[nH]3)CC2)cn1 [Example 159, (R)-5-(benzo[d]thiazol-2-yl)-2-(4-(1-methyl-1H-pyrazol-4-yl)piperazin-1-yl)-6-(piperidin-3-ylamino)pyrimidin-4(3H)-one] | 20 | – | –
28 | NC1CCCCC1Nc1nc(N2CCOCC2)[nH]c(=O)c1-c1nc2ccccc2s1 (centres unmarked) [Example 263, 6-(2-aminocyclohexylamino)-5-(benzo[d]thiazol-2-yl)-2-morpholino-pyrimidin-4(3H)-one] | – | – | IC50 (read-out: IC50): 230 nM
29 | O=c1[nH]c(N2CCN(c3ccc(C(F)(F)F)cn3)CC2)nc(N[C@@H]2CCCNC2)c1-c1nc2ccccc2s1 [Example 135, (R)-5-(benzo[d]thiazol-2-yl)-6-(piperidin-3-ylamino)-2-(4-(5-(trifluoromethyl)pyridin-2-yl)piperazin-1-yl)pyrimidin-4(3H)-one] | 11 | – | –
30 | CCN1CCCC1CNc1nc(N2CCOCC2)[nH]c(=O)c1-c1ccc2ccccc2n1 (centres unmarked) [Example 277, 6-((1-ethylpyrrolidin-2-yl)methylamino)-2-morpholino-5-(quinolin-2-yl)pyrimidin-4(3H)-one] | – | – | IC50 (read-out: IC50): 1600 nM
31 | CN(CCO)c1nc(N[C@@H]2CCCNC2)c(-c2nc3ccccc3s2)c(=O)[nH]1 [Example 292, (R)-5-(benzo[d]thiazol-2-yl)-2-((2-hydroxyethyl)(methyl)amino)-6-(piperidin-3-ylamino)pyrimidin-4(3H)-one] | – | – | IC50 (read-out: IC50): 190 nM
32 | O=c1[nH]c(N2CCOCC2)nc(N[C@@H]2CCCNC2)c1-c1nc2cc(F)ccc2s1 [Example 97, (R)-5-(5-Fluorobenzo[d]thiazol-2-yl)-2-morpholino-6-(piperidin-3-ylamino)pyrimidin-4(3H)-one.HCl] | – | 8.4 | –
